What all share (assay type): functional, organism-based
In assay [1] the test system is Leishmania tarentolae. Nature of the assay: Growth inhibition of Leishmania tarentolae axenic promastigotes after 2 days relative to ethanol.
In assay [2] the test system is Leishmania tarentolae. In words: Growth inhibition of Leishmania tarentolae axenic promastigotes upto 40 uM.
Assay [3] concerns Leishmania tarentolae. Nature of the assay: Growth inhibition of Leishmania tarentolae promastigotes assessed as mitochondrial superoxide production at 5 to 10 uM after 3 hrs by confocal fluorescence microscopy.
Assay [4] concerns Leishmania tarentolae. In words: Growth inhibition of light-illuminated Leishmania tarentolae promastigotes assessed as enhancement of mitochondrial superoxide production at 5 to 10 uM after 3 hrs by confocal fluorescence microscopy.
In assay [5] the test system is Leishmania tarentolae. Nature of the assay: Induction of mitochondrial singlet oxygen production in Leishmania tarentolae promastigotes at 2 uM by confocal fluorescence microscopy.

For two molecules, Activity results are on record in ChEMBL document CHEMBL1157502, “Carbaporphyrin ketals as potential agents for a new photodynamic therapy treatment of leishmaniasis” (Bioorg Med Chem, 2008).

Activity calls are given as the source filed them. The calls are words filed in the database; no cut-off is given here.

With `CCOC1(OCC)/C2=C\C3=NC(=C\C4=NC(=C\c5[nH]c(c(C)c5CC)/C=C\1c1ccccc12)/C(CC)=C4CC)/C(CC)=C3C`, the Activity result with Leishmania tarentolae [1] was “Dose-dependent effect”. For the same molecule, the result in the assay with Leishmania tarentolae [2] was inactive. For the same molecule, the result in the assay on Leishmania tarentolae [3] and with Leishmania tarentolae [4] was Active.
As to `CCC1=C(CC)/C2=C/c3[nH]c(c(C)c3CC)/C=C3/c4ccccc4/C(=C/C4=NC(=C\C1=N2)/C(CC)=C4C)C3(OC)OC`, in the assay on Leishmania tarentolae [1], the Activity result was “Dose-dependent effect”. Besides, in the assay with Leishmania tarentolae [2], the result was inactive. Besides, the result with Leishmania tarentolae [3], in the assay with Leishmania tarentolae [4] and in the assay on Leishmania tarentolae [5] was Active.
